Test results reported in patent publication US10232023B2, “Methods for treatment of and prophylaxis against inflammatory disorders” (THE UNIVERSITY OF UTAH RESEARCH FOUNDATION, priority 2013, dated 2019).
“Also recorded” adds a separate entry of the source.

How the values were obtained:
PMA-stimulated PMNs = test: Nuclear decondensation (nuclear area) assay; assay type: cell-based, human; details: CRISPP 1 nM, SCR 1 nM, Sivelestat 200 nM; PMA 20 nM, 2 hours; vs PMA alone
Method: Using techniques modified from Papayannopoulos et al., J Cell Biol, 2010, 191: 677-691, nuclear area assays were used for PMA-stimulated PMNs as a surrogate for NET formation. PMNs were stimulated with PMA (20 nM) for 2 hours and then visualized via live cell imaging with a cell permeable DNA dye. Images from 5 randomly selected high power fields were captured and the nuclear area of all PMNs on each visual field was quantitated using IMAGEJ software. Nuclear areas were compared for PMNs stimulated with PMA with PMNs pre-incubated with CRISPP (1 nM), SCR (1 nM), or the NE inhibitor Sivelestat (200 nM). […] Next, immunocytochemical experiments designed to see whether CRISPP is taken up by human PMNs were performed. The CRISPP-F and SCR-F peptides and FLAG-tag specific primary antibodies were used to assess cellular location. […] CRISPP can inhibit nuclear chromatin decondensation, which is consistent with the selective inhibition of NET formation by CRISPP and nNIF. This process may involve inhibition of NE activity.
PMNs were isolated and resuspended to 2×10^6 cells/mL in M-199 media. […] 5 randomly selected high power visual fields per sample were captured via confocal microscopy and analyzed for nuclear area using the cell-permeable, fluorescent DNA dye SYTO Green. The nuclear pixel areas of >100 individual cells per high power field were determined using IMAGE-J software (NIH).

[1] = system: C57BL6 mice, intraperitoneal injection of LPS; test: Survival after intraperitoneal LPS; assay type: in vivo, mouse; details: LPS 20 mg/kg IP; 10 mcg/kg/dose IP, 1 hour prior and 6 hours after; vs LPS+scrambled peptide, p=0.02
Method: FIG. 10A is a graph tracking survival of C57BL6 mice in various treatment arms following intraperitoneal injection of LPS (20 mg/kg). CRISPP-treated mice (10 mcg/kg/dose) received 2 doses intraperitoneally; one given 1 hour prior to infection and one dose given 6 hours after infection. The same dose, delivery route, and schedule were followed for the scrambled peptide control mice. Six mice were assessed in both groups.
Survival of outbred Swiss mice was tracked in various treatment arms following intraperitoneal injection of either LPS (20 mg/kg) or E. coli (4×10^7 bacteria), as shown in FIGS. 10A and 10B. […] Six mice were assessed in both groups: LPS+CRISPP and LPS+scrambled control peptide. […] Ten mice were assessed in each group: no treatment, E. coli+CRISPP, and E. coli+scrambled control peptide. […] Referring to FIG. 11, CRISPP was also evaluated in a murine model of polymicrobial infection caused by cecal ligation and puncture (CL/P). […] Ten mice were assessed in each of the CL/P groups. […]
Animals were treated with CRISPP (10 mg/kg), nNIF (10 mg/kg), or SCR (10 mg/kg) by i.p. injection 1 hour prior to and 6 hours after infection (E. coli, 4.5×10^7 cfu/mouse, i.p. injection) or stimulation (LPS, 25 mg/kg, i.p. injection). […] Survival was assessed over 6 days at 6 hour to 12 hour intervals.

Mature ewe PMNs = test: NET formation by sheep PMNs; assay type: cell-based
From the text: Referring to FIGS. 13A and 13B, PMNs from preterm lamb cord blood and from mature ewes were isolated.

[2] = system: human PMNs incubated with dengue virus; test: Dengue virus-induced NET formation by human PMNs; assay type: cell-based; details: pretreatment 1 nM, 1 hour; dengue virus 0.05 MOI
Method: Mock incubation using dengue virus media without infection served as a control. Dengue virus induced NET formation by PMNs from human adults.
Primary PMNs isolated from healthy adults (2×10^6 cells/mL) were incubated with mock infection buffer or live dengue virus (MOI 0.05), as for the live cell imaging discussed above. After a 1 hour incubation, the infected PMNs were fixed with 2% p-FA for 10 minutes prior to incubation with fluorescently-labeled, cell permeable and cell impermeable DNA dyes, and imaged as for live cell imaging using confocal microscopy.

Cancer-Associated SCM-Recognition, Immune Defense Suppression, and Serine Protease Protection Peptide [CRISPP, nNIF-related peptide (nNRP)]
Nuclear area of PMA-stimulated PMNs (PMA-stimulated PMNs): significant decrease in nuclear area | Survival [1]: statistically greater | NET formation by LPS-stimulated sheep PMNs (Mature ewe PMNs; mature ewe PMNs, pre-treatment 1 hour, LPS 100 ng/mL): inhibited NET formation in a dose-dependent manner | NET formation by PMA-stimulated sheep PMNs (Mature ewe PMNs; sheep PMNs, PMA): inhibited NET formation | NET formation induced by dengue virus [2]: completely blocked NET formation; also recorded: inhibited NET formation
